# Measurements published in ChEMBL document CHEMBL1143970, “Structure-activity relationships and CoMFA of N-3 substituted phenoxypropyl piperidine benzimidazol-2-one analogues as NOP receptor agonists with analgesic properties” (Bioorg Med Chem, 2008).
# Tests used:
# Rattus norvegicus [1] = assay: Reversal of mechanically-induced allodynia in Wistar rat at 30 umol/kg, iv after 2 hrs by Brennan test; type: functional
# Rattus norvegicus [2] = assay: Effect on mechanically-induced allodynia in iv dosed Wistar rat after 2 hrs by Brennan test; type: functional
# [3] = Solubility of the compound; type: physicochemical
Structure (SMILES),Activity (Rattus norvegicus [1]) [%],ED50 (Rattus norvegicus [2]) [µmol/kg],solubility [3] [µg/mL]
COc1ccc(C)c(OC(CCN2CCC(n3c(=O)n(Cc4ncn[nH]4)c4ccccc43)CC2)C(C)C)c1 (centres undefined),100,12.1,–
COc1ccc(C)c(OC(CCN2CCC(n3c(=O)n(Cc4c[nH]cn4)c4ccccc43)CC2)C(C)C)c1 (centres undefined),–,–,200
"COc1ccc(C)c(OC(CCN2CCC(n3c(=O)n(Cc4ncn[nH]4)c4ccccc43)CC2)C(C)C)c1.Cl (single isomer, unassigned; (+))",–,–,4
